Measured values: patent US20030100479A1, “Gene polymorphisms and response to treatment” (priority 2001, published 2003)
Entries after “also recorded” stand apart in the source; their conditions may differ.

Legend:
[1] = Clinical trial of GW320659: change in supine heart rate (time-adjusted AUC), by genotype; format: in vivo, human; parameters: Change in Heart Rate, Mean / Heart Rate (mean time adusted change): unit not given here
Source text: (§1) Using genotyping methods as are well known in the art, genetic data were obtained from approximately 200 of more than 500 human subjects enrolled in a dose-ranging efficacy and safety study of GW320659 for weight loss (main study group; a randomized, double-blind, placebo controlled, dose-ranging clinical trial); GW320659 was used in conjunction with a mildly hypocaloric diet and brief weight management guidance. Subjects were between the ages of 18-65 years, with a Body Mass Index (BMI) of 30-40, and were not on any psychotropic medications or other anti-obesity medications. Subjects were randomized into one of five treatment groups: placebo or GW320659 at 2.5 mg/day, 5 mg/day, 10 mg/day, or 15 mg/day (oral administration). In the main study group, for the GW320659 15 mg/day dosage, average weight loss was approximately 3.7 kg (108 subjects; data not shown).
(§2) Subjects were assessed for various parameters, including absolute change in body weight from week 0 to week 24 of the study; supine heart rate, diastolic blood pressure and systolic blood pressure at multiple predetermined time-points across the study; and change in Food Craving Inventory (Total) score from week 0 to week 24.
(§3) Analyses of changes in cardiovascular endpoints (HR, SBP, DBP, all measured in supine subjects) were conducted individually for each of the polymorphic sites, and analyzed as follows. Vital sign assessments at all post-baseline visits were analyzed utilizing a repeated measures (mixed) ANOVA model. Genotype by treatment interactions were assessed. The following model was used.
(§4) If the treatment by time interaction was non-significant, the corresponding term was planned to be removed from the model, prior to assessing treatment by genotype interaction. Subsequently, this term was removed for all vital signs analyses. In addition, vital signs data was analyzed utilizing a time-weighted area under the curve (adjusted for baseline) analysis. Model #2 (used for the efficacy analyses) was employed for these analyses.
The multilocus genotypes from each individual were used to enumerate all possible haplotypes. These haplotypes were assigned starting frequencies. The haplotype frequencies were updated with frequencies calculated from all the possible haplotypes from each individual in the sample. This continued until the frequencies were constant from iteration to iteration.
Regression-based models were used to relate inferred haplotype probabilities for each individual with the continuous response.
(§5) Supine heart rate (HR), supine systolic blood pressure (SBP) and supine diastolic blood pressure (DBP) were assessed at various fixed intervals across the duration of the study. Summaries and analyses were conducted on the “area under the curve” (AUC) values (adjusted for time on study and baseline). All reported p-values in this section refer to AUC analyses, using Model No.2 as described above.
As in Food Craving Inventory (Example 6, above), manual splits were created by treatment dose (placebo, 2.5+5 mg, and 10+15 mg). The p-value threshold was then set at 0.10 (the minimum level necessary to get further automatic splits). The software then determined the remaining splits for the 10+15 mg group. The splits found in the 10+15 mg group were then manually duplicated for the lower dose groups (for comparison purposes).

[2] = Clinical trial of GW320659: change in supine diastolic blood pressure (time-adjusted AUC), by genotype; format: in vivo, human
Source text: as §1, §2, §3, §4, §5
Accordingly, for some recursive partioning analysis the treatment groups were split in this manner (15 mg versus all other groups). The p-value threshold was set 0.10 (the minimum level necessary to get further automatic splits). The software then determined the remaining splits for the 15 mg group. […]

[3] = Clinical trial of GW320659: change in Food Craving Inventory (Total) score week 0 to week 24, by genotype; format: in vivo, human; details: for Change in Food Craving Inventory, mean response: 10 mg+15 mg; for Placebo adjusted mean change in Food Craving Inventory (Total) score: 15 mg dose group; for Mean change in Food Craving Inventory (Total) score: data not shown
Source text: as §1, §2
The endpoint of Change in Food Craving Inventory (total score) was analyzed with the same methods.
The Food Craving Inventory used was a validated scale developed at Louisiana State University. It is a scale of 37 items designed to measure food cravings for specific foods. For each item the subject is asked “Over the past month, how often have you experienced a craving for the food?”. Possible responses were Never, Rarely, Sometimes, Often, and Always. These responses were converted to ordinal scores (1, 2, 3, 4, 5). The mean total score was computed for each patient. Change from baseline mean scores were analyzed. Possible range for this measure was −4 to 4; a negative number indicates a decrease in cravings.
The change in Food Craving Inventory was assessed by grouping low dose treatments together (2.5+5 mg treatments) and higher dose treatments together (10 mg+15 mg), and comparing to placebo, using a p-value threshold set at […] (the minimum level necessary to get further automatic splits). The software then determined the remaining splits for the 10 mg+15 mg group. The splits found in the 10+15 mg group were then manually duplicated for the lower dose group (2.5+5 mg) for comparison purposes. As an example, for the 10 mg+15 mg treatment doses, the mean response for subjects with genotype 1, 2 or 2,2 for the NET1 C120A genetic marker and a baseline weight greater than 86.6 kg, was −0.55 (std=0.37 n=49). FIG. 11. For all subjects not in the defined subgroup, mean response was −0.02 (std=0.60, n=25).

norepinephrine uptake = details: Kelley et al., J. Med. Chem. 39:347 (1996); cited from earlier work
[4] = NET1 T342C (2,2) and without DRD2 C12121T (2,2), 10 mg/day or 15 mg/day
[5] = subgroup 2,2 for NET1T342C and/or NET1G155A and/or NR1G6435A, 10 mg and 15 mg combined
[6] = subgroup 2,2 for NET1T342C and/or NET1G155A and/or NR1G6435A, 10 mg/day+15 mg/day, not significantly different from placebo
[7] = subgroup 2/2 NET1T342C and/or 2/2 NET1G155A and/or 2/2 NR1G6435A, 10 mg/day+15 mg/day, 26 subjects

C[C@@H]1CO[C@@](O)(c2cc(F)cc(F)c2)[C@H](C)N1.Cl [GW320659, (2S,3S,5R)-2-(3,5-difluorophenyl)-3,5-dimethyl-2-morpholinol]
Increase in heart rate compared to subjects with alternate genotypes ([1]; DRD2 C12121T (2′,2) and MAOBG644A (1,1) genotypes, 10 mg/day or 15 mg/day): larger increase in heart rate
Changes in heart rate compared to subjects with alternate genotypes [1, 4]: decreased changes in heart rate and blood pressure; also recorded: comparatively small changes in HR, SBP and DBP
Change in Heart Rate, Mean ([1]; haplotype 1,1 5HTTC867T 5HTTT3287C, All Ethnicities, 10 and 15 mg combined (Table 6)): 3.5075
Change in Heart Rate, Mean ([1]; haplotype 1,1 5HTTC867T 5HTTT3287C, Caucasians, 10 and 15 mg combined (Table 7)): 3.811
Change in Heart Rate, Mean ([1]; haplotype 1,1 5HTTDel-Ins 5HTTC867T, All Ethnicities, 10 and 15 mg combined (Table 6)): 4.2
Change in Heart Rate, Mean ([1]; haplotype 1,1 5HTTDel-Ins 5HTTC867T, Caucasians, 10 and 15 mg combined (Table 7)): 4.077
Change in Heart Rate, Mean ([1]; haplotype 1,1,1 5HTTDel-Ins 5HTTC867T 5HTT3287C, All Ethnicities, 10 and 15 mg combined (Table 6)): 5.48
Change in Heart Rate, Mean ([1]; haplotype 1,1,1 5HTTDel-Ins 5HTTC867T 5HTT3287C, Caucasians, 10 and 15 mg combined (Table 7)): 5.69
Change in Heart Rate, Mean ([1]; haplotype 1,1,2 5HTTDel-Ins 5HTTC867T 5HTT3287C, All Ethnicities, 10 and 15 mg combined (Table 6)): −0.6849
Change in Heart Rate, Mean ([1]; haplotype 1,1,2 5HTTDel-Ins 5HTTC867T 5HTT3287C, Caucasians, 10 and 15 mg combined (Table 7)): −0.8345
Change in Heart Rate, Mean ([1]; haplotype 1,2 5HTTC867T 5HTTT3287C, All Ethnicities, 10 and 15 mg combined (Table 6)): −0.6851
Change in Heart Rate, Mean ([1]; haplotype 1,2 5HTTC867T 5HTTT3287C, Caucasians, 10 and 15 mg combined (Table 7)): −0.8347
Change in Heart Rate, Mean ([1]; haplotype 1,2 5HTTDel-Ins 5HTTC867T, All Ethnicities, 10 and 15 mg combined (Table 6)): 6.424
Change in Heart Rate, Mean ([1]; haplotype 1,2 5HTTDel-Ins 5HTTC867T, Caucasians, 10 and 15 mg combined (Table 7)): 6.807
Change in Heart Rate, Mean ([1]; haplotype 1,2,1 5HTTDel-Ins 5HTTC867T 5HTT3287C, All Ethnicities, 10 and 15 mg combined (Table 6)): 6.404
Change in Heart Rate, Mean ([1]; haplotype 1,2,1 5HTTDel-Ins 5HTTC867T 5HTT3287C, Caucasians, 10 and 15 mg combined (Table 7)): 6.808
Change in Heart Rate, Mean ([1]; haplotype 2,1 5HTTC867T 5HTTT3287C, All Ethnicities, 10 and 15 mg combined (Table 6)): 5.565
Change in Heart Rate, Mean ([1]; haplotype 2,1 5HTTC867T 5HTTT3287C, Caucasians, 10 and 15 mg combined (Table 7)): 5.827
Change in Heart Rate, Mean ([1]; haplotype 2,1 5HTTDel-Ins 5HTTC867T, All Ethnicities, 10 and 15 mg combined (Table 6)): 2.183
Change in Heart Rate, Mean ([1]; haplotype 2,1 5HTTDel-Ins 5HTTC867T, Caucasians, 10 and 15 mg combined (Table 7)): 3.034
Change in Heart Rate, Mean ([1]; haplotype 2,1,1 5HTTDel-Ins 5HTTC867T 5HTT3287C, All Ethnicities, 10 and 15 mg combined (Table 6)): 2.256
Change in Heart Rate, Mean ([1]; haplotype 2,1,1 5HTTDel-Ins 5HTTC867T 5HTT3287C, Caucasians, 10 and 15 mg combined (Table 7)): 3.11
Change in Heart Rate, Mean ([1]; haplotype 2,2 5HTTDel-Ins 5HTTC867T, All Ethnicities, 10 and 15 mg combined (Table 6)): 4.879
Change in Heart Rate, Mean ([1]; haplotype 2,2 5HTTDel-Ins 5HTTC867T, Caucasians, 10 and 15 mg combined (Table 7)): 5.085
Change in Heart Rate, Mean ([1]; haplotype 2,2,1 5HTTDel-Ins 5HTTC867T 5HTT3287C, All Ethnicities, 10 and 15 mg combined (Table 6)): 4.782
Change in Heart Rate, Mean ([1]; haplotype 2,2,1 5HTTDel-Ins 5HTTC867T 5HTT3287C, Caucasians, 10 and 15 mg combined (Table 7)): 4.92
Mean rise in HR [1, 5]: 4.7 bpm
Overall mean time-adjusted change in Heart Rate, mean rise [1, 6]: 4.7 beats per minute
Heart Rate (mean time adusted change) [1, 7]: 4.666
Mean change in HR ([1]; subgroup DRD2 C12121T (1,1) and MAOB G644A (1,1), 10 mg and 15 mg dosing): 13 bpm
Overall mean time-adjusted change in Heart Rate, mean increase ([1]; subgroup DRD2C12121T=2,2 and MAOBG644A=1,1, 10 mg/day+15 mg/day): 13 beats per minute
Changes in diastolic blood pressure compared to subjects with alternate genotypes [2, 4]: decreased changes in heart rate and blood pressure; also recorded: comparatively small changes in HR, SBP and DBP
Mean rise in DBP [2, 5]: 2.4 mmHG
Overall mean time-adjusted change in Diastolic Blood Pressure, mean rise [2, 6]: 2.4 mm Hg
Diastolic Blood Pressure (mean time adjusted change) [2, 7]: 2.431
Change in Food Craving Inventory, mean response ([3]; NET1 C120A genotype 1,2 or 2,2 and baseline weight greater than 86.6 kg, std=0.37 n=49): −0.55
Change in Food Craving Inventory, mean response ([3]; all subjects not in the defined subgroup, std=0.60, n=25): −0.02
Placebo adjusted mean change in Food Craving Inventory (Total) score ([3]; 5HTT G160A 2,2 genotype, scale range −4 to 4): 0.7
Mean change in Food Craving Inventory (Total) score ([3]; DRD2 C12121T 1,1 genotype, 15 mg dose): −0.7
Mean change in Food Craving Inventory (Total) score ([3]; DRD2 C20236T 2,2 genotype, 15 mg dose): −0.7
Placebo adjusted mean change in Food Craving Inventory (Total) score ([3]; NET1 C120A genotype 1,1): 0.2
Placebo adjusted mean change in Food Craving Inventory (Total) score ([3]; NET1 C120A genotype 1,2): −0.4
Placebo adjusted mean change in Food Craving Inventory (Total) score ([3]; NET1 C120A genotype 2,2): −0.4
Mean change in Food Craving Inventory (Total) score ([3]; NET1 T342C 2,2 genotype, 10 mg dose): −0.7
Mean change in Food Craving Inventory (Total) [3, 7]: −0.528
Inhibition of norepinephrine uptake (norepinephrine uptake): potent, selective inhibitor of norepinephrine uptake
